± gives the standard deviation of the averaged measurements.
Tests used:
Experiment in all cases: level (log10 ratio to DMSO vehicle control); higher = higher biomarker level / cell amount than vehicle control
[1] = compound: O=C(O)C(F)(F)OC(F)(F)C(F)(F)OC(F)(F)F [Perfluoro-3,6-dioxaheptanoic acid]; conditions: in DMSO
Experimental: (§1)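 BioMAP Diversity Plus panel of 12 human primary cell co-culture systems (3C, 4H, LPS, SAg, BT, BF4T, BE3C, CASM3C, HDF3CGF, KF3CT, MyoF, Mphg). Compounds were added 1 h before stimulation and left for 24 h (MyoF 48 h; BT 72 h for soluble read-outs or 6 d for IgG). Biomarkers were read by ELISA, cytotoxicity by SRB, PBMC viability and proliferation by Alamar Blue. Each well value was divided by the mean of 8 DMSO control wells on the same plate and log10 transformed; duplicate blinded samples were tested at 4 concentrations.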

[2] = compound: C=CC(=O)OCC(F)(F)C(F)(F)C(F)(F)C(F)(F)C(F)(F)C(F)(F)C(F)(F)F [1H,1H-Perfluorooctyl acrylate]; conditions: in DMSO
Experimental: as §1

[3] = compound: FC(F)(F)C(F)(F)C(F)(F)C(F)(F)C(F)(F)C(F)(F)C(F)(F)C(F)(F)CCS [2-(Perfluorooctyl)ethanthiol]; conditions: in DMSO
Experimental: as §1

[4] = compound: OCCC(F)(F)C(F)(F)C(F)(F)C(F)(F)C(F)(F)C(F)(F)F [6:2 Fluorotelomer alcohol]; conditions: in DMSO
Experimental: as §1

[5] = compound: OCC(F)(F)OC(F)(F)C(F)(F)OC(F)(F)CO [1H,1H,8H,8H-Perfluoro-3,6-dioxaoctane-1,8-diol]; conditions: in DMSO
Experimental: as §1

[6] = compound: OCCCC(F)(F)C(F)(F)C(F)(F)C(F)(F)C(F)(F)C(F)(F)C(F)(F)F [7:3 Fluorotelomer alcohol]; conditions: 6700 nM; in DMSO
Experimental: as §1

[7] = compound: O=C(O)C(F)(F)C(F)(F)C(F)(F)C(F)(F)C(F)(F)C(F)(F)C(F)(F)C(F)F [9-H-Perfluorononanoic acid]; conditions: in DMSO
Experimental: as §1

Perfluoropentanoic acid = compound: O=C(O)C(F)(F)C(F)(F)C(F)(F)C(F)(F)F [Perfluoropentanoic acid]; conditions: in DMSO
Experimental: as §1

Test System | level (log10) ([1]; 6700 nM) | level (log10) ([1]; 20000 nM) | level (log10) ([1]; 60000 nM) | level (log10) ([2]; 6700 nM) | level (log10) ([2]; 20000 nM) | level (log10) ([2]; 60000 nM) | level (log10) ([3]; 6700 nM) | level (log10) ([3]; 20000 nM) | level (log10) ([4]; 6700 nM) | level (log10) ([4]; 20000 nM) | level (log10) ([5]; 6700 nM) | level (log10) ([5]; 20000 nM) | level (log10) ([5]; 60000 nM) | level (log10) [6] | level (log10) ([7]; 6700 nM) | level (log10) ([7]; 20000 nM) | level (log10) ([7]; 60000 nM) | level (log10) (Perfluoropentanoic acid; 6700 nM) | level (log10) (Perfluoropentanoic acid; 20000 nM) | level (log10) (Perfluoropentanoic acid; 60000 nM)
MyoF:Collagen III | -0.025 ± 0.0014 | -0.001 ± 0.017 | 0.027 ± 0.038 | 0.0005 ± 0.013 | -0.007 ± 0.024 | -0.0055 ± 0.021 | -0.0105 ± 0.015 | -0.0345 ± 0.018 | 0.003 ± 0.016 | -0.005 ± 0.0014 | -0.0225 ± 0.015 | 0.001 | -0.012 ± 0.028 | -0.0035 ± 0.012 | -0.002 ± 0.0085 | -0.003 ± 0.0042 | -0.026 ± 0.018 | -0.001 ± 0.0028 | 0.0055 ± 0.0021 | -0.001 ± 0.0085
CASM3C:CXCL9/MIG | 0.028 ± 0.058 | 0.0245 ± 0.083 | 0.0415 ± 0.087 | 0.001 ± 0.0028 | -0.0015 ± 0.011 | 0.0005 ± 0.0035 | -0.0025 ± 0.023 | 0.0395 ± 0.0064 | -0.011 ± 0.025 | -0.0165 ± 0.0035 | 0.0055 ± 0.012 | 0.0175 ± 0.011 | 0.0205 ± 0.0035 | -0.0125 ± 0.0035 | -0.024 ± 0.017 | -0.0155 ± 0.0092 | 0.0205 ± 0.00071 | 0.001 ± 0.062 | -0.0015 ± 0.036 | 0.043 ± 0.017
KF3CT:CCL2/MCP-1 | -0.0175 ± 0.016 | -0.0345 ± 0.0078 | 0.0395 ± 0.028 | -0.0195 ± 0.022 | -0.0195 ± 0.0021 | -0.016 ± 0.011 | -0.0125 ± 0.011 | -0.0285 ± 0.0092 | -0.015 ± 0.038 | -0.016 ± 0.041 | -0.0075 ± 0.026 | -0.022 ± 0.011 | 0.0235 ± 0.061 | -0.0105 ± 0.005 | -0.04 ± 0.0028 | -0.0335 ± 0.0078 | 0.009 ± 0.065 | 0.002 ± 0.02 | -0.025 ± 0.025 | 0.0215 ± 0.05
MyoF:PAI-I | -0.019 ± 0.038 | -0.0245 ± 0.03 | -0.0275 ± 0.025 | 0.005 ± 0.016 | -0.0005 ± 0.018 | -0.0065 ± 0.0078 | -0.001 ± 0.0042 | -0.0005 ± 0.012 | 0.002 ± 0.0028 | 0.007 ± 0.0042 | -0.008 ± 0.0099 | -0.008 ± 0.017 | 0.0025 ± 0.0078 | 0.0015 ± 0.0035 | -0.0075 ± 0.011 | 0.004 ± 0.0042 | -0.0025 ± 0.0092 | -0.0035 ± 0.00071 | 0.005 ± 0.0071 | 0.0075 ± 0.0021
HDF3CGF:CXCL11/I-TAC | -0.017 ± 0.0057 | -0.0035 ± 0.022 | -0.0035 ± 0.012 | -0.017 ± 0.011 | -0.0275 ± 0.037 | -0.063 ± 0.011 | -0.0135 ± 0.028 | -0.0355 ± 0.0092 | 0.002 ± 0.0071 | 0.0155 ± 0.0035 | 0.0085 ± 0.00071 | 0.0055 ± 0.0064 | 0.014 ± 0.031 | -0.0445 ± 0.023 | -0.059 ± 0.0085 | -0.078 ± 0.0099 | -0.09 ± 0.021 | -0.0085 ± 0.012 | -0.0065 ± 0.015 | 0.005 ± 0.054
3C:CD142/Tissue Factor | -0.0295 ± 0.047 | -0.025 ± 0.04 | -0.053 ± 0.0014 | 0.001 ± 0.0057 | 0 ± 0.0014 | -0.0165 ± 0.0078 | -0.0345 ± 0.022 | -0.0335 ± 0.015 | -0.003 ± 0.044 | -0.014 ± 0.025 | 0.0175 ± 0.0064 | 0.011 ± 0.021 | -0.0045 ± 0.0035 | -0.007 ± 0.0057 | 0.035 ± 0.0028 | 0.027 ± 0.0042 | 0.059 ± 0.023 | 0.0225 ± 0.011 | 0.018 ± 0.027 | 0.0395 ± 0.056
lMphg:CXCL8/IL-8 | 0.026 ± 0.017 | 0.068 ± 0.051 | 0.167 ± 0.074 | 0.0185 ± 0.005 | 0.029 ± 0.0071 | 0.0295 ± 0.005 | -0.012 ± 0.016 | 0.008 ± 0.016 | -0.0115 ± 0.056 | -0.0125 ± 0.018 | 0.0065 ± 0.079 | 0.007 ± 0.072 | 0.0235 ± 0.1 | 0.01 ± 0.013 | 0.033 ± 0.021 | 0.0415 ± 0.019 | 0.112 ± 0.0014 | 0.005 ± 0.031 | -0.0275 ± 0.013 | 0.044 ± 0.064
MyoF:Collagen I | -0.0185 ± 0.039 | -0.002 ± 0.0099 | -0.0155 ± 0.023 | -0.0195 ± 0.018 | -0.03 | -0.0145 ± 0.011 | -0.001 ± 0.042 | -0.0265 ± 0.029 | -0.0015 ± 0.0064 | -0.003 ± 0.011 | 0.0045 ± 0.021 | -0.0165 ± 0.052 | -0.015 ± 0.04 | -0.0125 ± 0.011 | 0.0035 ± 0.0021 | 0.0025 ± 0.0035 | -0.0365 ± 0.0092 | -0.0065 ± 0.0092 | -0.008 ± 0.0085 | 0.0065 ± 0.015
MyoF:MMP-1 | -0.0045 ± 0.0021 | -0.0545 ± 0.013 | 0.041 ± 0.054 | -0.0135 ± 0.019 | -0.016 | 0.0275 ± 0.005 | -0.0265 ± 0.0092 | -0.0545 ± 0.037 | 0 ± 0.016 | -0.0035 ± 0.005 | -0.022 ± 0.028 | -0.0115 ± 0.011 | 0.024 ± 0.058 | -0.004 | -0.015 ± 0.0099 | -0.005 | -0.0215 ± 0.023 | -0.009 ± 0.02 | -0.0215 ± 0.011 | 0.009 ± 0.071
HDF3CGF:MMP-1 | -0.009 ± 0.0099 | 0.0085 ± 0.013 | -0.014 ± 0.03 | 0.013 ± 0.034 | 0.0425 ± 0.0078 | 0.0365 ± 0.019 | -0.0095 ± 0.022 | -0.0235 ± 0.044 | -0.0025 ± 0.00071 | 0.0015 ± 0.00071 | -0.0055 ± 0.0092 | -0.0115 ± 0.023 | -0.006 | -0.034 ± 0.021 | -0.047 ± 0.011 | -0.0915 ± 0.013 | -0.0745 ± 0.0078 | -0.0165 ± 0.013 | -0.0215 ± 0.0021 | -0.0215 ± 0.011
lMphg:SRB-Mphg | -0.053 ± 0.0014 | -0.079 ± 0.13 | -0.076 ± 0.19 | -0.002 ± 0.011 | -0.0015 ± 0.0078 | 0.0045 ± 0.018 | 0.007 ± 0.0057 | 0.0105 ± 0.018 | -0.0055 ± 0.0064 | -0.0255 ± 0.011 | -0.015 ± 0.033 | 0.0175 ± 0.023 | 0.0455 ± 0.077 | -0.0015 ± 0.0021 | 0.0225 ± 0.018 | 0.043 ± 0.013 | 0.0175 ± 0.032 | -0.0125 ± 0.022 | 0.001 ± 0.0071 | 0.006 ± 0.017
BE3C:PAI-I | -0.037 ± 0.055 | 0.0125 ± 0.053 | 0.0055 ± 0.018 | -0.0295 ± 0.018 | -0.0285 ± 0.028 | -0.028 ± 0.03 | -0.015 ± 0.044 | -0.05 ± 0.011 | -0.0205 ± 0.03 | -0.025 ± 0.048 | -0.0105 ± 0.005 | -0.0235 ± 0.0092 | 0.01 ± 0.021 | -0.0545 ± 0.049 | 0.0195 ± 0.04 | 0.0405 ± 0.023 | -0.0295 ± 0.0021 | -0.021 ± 0.0071 | -0.02 ± 0.0057 | 0.015 ± 0.057
HDF3CGF:Collagen I | 0.0055 ± 0.0064 | 0.049 ± 0.0085 | 0.069 ± 0.0014 | -0.0065 ± 0.05 | 0.0415 ± 0.005 | 0.0675 ± 0.05 | 0.0055 ± 0.052 | 0.0125 ± 0.052 | -0.036 ± 0.057 | -0.0445 ± 0.08 | -0.025 ± 0.018 | -0.023 ± 0.0042 | 0.02 ± 0.092 | -0.0325 ± 0.046 | -0.0315 ± 0.1 | 0.009 ± 0.096 | 0.015 ± 0.052 | -0.0295 ± 0.012 | -0.01 ± 0.0014 | 0.003 ± 0.064
lMphg:CD69 | 0.0255 ± 0.069 | 0.0085 ± 0.033 | 0.058 ± 0.0085 | -0.0255 ± 0.012 | -0.016 ± 0.033 | -0.0135 ± 0.013 | -0.0425 ± 0.039 | -0.069 ± 0.045 | -0.0205 ± 0.0078 | -0.017 ± 0.0028 | -0.0305 ± 0.0064 | -0.041 ± 0.025 | -0.0145 ± 0.13 | -0.0115 ± 0.011 | -0.0445 ± 0.088 | -0.038 ± 0.054 | -0.072 ± 0.0099 | -0.0315 ± 0.0092 | -0.0525 ± 0.013 | 0.0175 ± 0.077

Reference: the supplement of paper PMC10331698
